Read-outs that look alike come from different tables or passages of the source.
Tests used:
isolated rat hepatocytes = type: cell-based; details: paracetamol-toxicated
Protocol: In the isolated hepatocyte preparation the, hepatoprotective activity was assessed against paracetamol, galactosamine carbon tetrachloride and thioacetamide induced damage.
The effect of cucurbitacin glucoside and F006 was also studied on paracetamol-toxicated isolated rat hepatocytes (ex vivo). At the doses of 0.5 and 1 mg/kg po×7.

[1] = tested on: liver and serum biochemical parameters; test: Protection against altered liver and serum biochemical parameters (toxicant not given); type: in vivo
[2] = tested on: thioacetamide induced hepatic damage (liver); test: Protection against thioacetamide induced biochemical changes in liver in rat; type: in vivo
Protocol: Although cucurbitacin glucoside (III) was a known compound, its biological activity is reported here for the first time. […] At higher dose (1 mg/kg) also, it reversed the decrease in levels of DNA (56%), RNA (100%) and glycogen (36%).

[3] = tested on: Plasmodium berghei infection in mastomys; test: Hepatoprotective activity against Plasmodium berghei infection-induced hepatic damage; type: in vivo; details: 1 mg/kg po × 15 days
cholestasis = test: Anticholestatic effect against induced cholestasis; type: in vivo; details: paracetamol induced; 0.5 and 1 mg/kg po × 7
[4] = tested on: bile flow (choleretic effect); test: Choleretic effect of cucurbitacin glucoside and F006 (bile volume and bile contents); type: in vivo
[5] = dose not given, range given for both agents

CC(=O)OC(C)(C)C=CC(=O)C(C)(O)C1C(O)CC2(C)C3CC=C4C(CC(O[C@@H]5O[C@H](CO)[C@@H](O)[C@H](O)[C@H]5O)C(O)C4(C)C)C3(C)CCC12C (stereo partly drawn) [Cucurbitacin glucoside, 25-acetoxy-2β-D-glucopyranoxy-3,16,20-trihydroxy-9-methyl-19-norlanosta-5,23-diene-22-one]
protection by Trypan blue exclusion test (cell viability) (isolated rat hepatocytes; 0.5 mg/kg po × 7): 97.4% | rate of oxygen consumption / oxygen uptake test (isolated rat hepatocytes; 0.5 mg/kg po × 7): 100% | protection by Trypan blue exclusion test (cell viability) (isolated rat hepatocytes; 1 mg/kg po × 7): 100% | rate of oxygen consumption / oxygen uptake test (isolated rat hepatocytes; 1 mg/kg po × 7): 100% | activity of cytochrome P450 ([1]; 1 mg/kg): significantly restored | activity of γ-glutamyl transpeptidase ([1]; 1 mg/kg): significantly restored | level of DNA ([1]; 1 mg/kg): significant reversal | level of RNA ([1]; 1 mg/kg): significant reversal | level of glycogen ([1]; 1 mg/kg): significant reversal | serum level of GOT ([1]; 1 mg/kg): restored almost completely towards normal | serum level of GPT ([1]; 1 mg/kg): restored almost completely towards normal | level of bilirubin in serum ([1]; dose not given): recovered | level of protein in serum ([1]; dose not given): recovered | protection, level of phospholipids ([1]; dose not given): significant protection | protection, 5'-nucleotidase activity [1, 5]: 46-56% | protection, acid ribonuclease activity [1, 5]: 48-96% | protection, glucose-6-phosphatase activity [1, 5]: 46-61% | protection, level of DNA [1, 5]: 55-78% | protection, level of protein [1, 5]: 96-100% | recovery of increased level of total lipids [1, 5]: 44-55% | toxicant-induced decrease in activity of succinate dehydrogenase ([2]; higher dose (1 mg/kg)): reversed significantly | toxicant-induced increase in activity of acid ribonuclease ([2]; higher dose (1 mg/kg)): reversed significantly | protection against decrease in DNA level in liver ([2]; thioacetamide, 0.48 mg/kg): 94% | protection against decrease in RNA level in liver ([2]; thioacetamide, 0.48 mg/kg): 95% | protection against decrease in glycogen level in liver ([2]; thioacetamide, 0.48 mg/kg): 60% | reversal of decrease in DNA level ([2]; thioacetamide, 1 mg/kg): 56% | reversal of decrease in RNA level ([2]; thioacetamide, 1 mg/kg): 100% | reversal of decrease in glycogen level ([2]; thioacetamide, 1 mg/kg): 36% | protection against hepatic damage (biochemical parameters in serum and liver) [3]: marked protection | reversal of decrease in bile acids (cholestasis): completely reversed | reversal of decrease in bile flow (cholestasis): completely reversed | reversal of decrease in bile salts (cholestasis): completely reversed | increase in bile salts ([4]; 0.5 mg/kg): 40% | increase in cholic acid ([4]; 0.5 mg/kg): 38.5% | increase in deoxycholic acid ([4]; 0.5 mg/kg): 47.6% | increase in volume of bile / bile flow ([4]; 0.5 mg/kg): 38% | increase in bile salts ([4]; 1 mg/kg): 100% | increase in cholic acid ([4]; 1 mg/kg): 100% | increase in deoxycholic acid ([4]; 1 mg/kg): 100% | increase in volume of bile / bile flow ([4]; 1 mg/kg): 90%

Reference: patent US5145955A, “Process for the preparation and composition of a fraction containing picroside I and kutkoside” (Council of Scientific & Industrial Research, priority 1991, dated 1992)
